Source: patent US8586719B2, “Triterpenes for modulating gene expression and cell membrane, and as antiprotozoal agents” (Pacific Arrow Limited, priority 2005, dated 2013)
In brackets after ≈: the same amount, converted by molar mass.

Assays:
[1] = test system: dual specificity phosphatase 10 (DUSP10); assay: Microarray gene expression in ES2 cells: DUSP10; type: cell-based, human
Excerpt: (§1) The composition comprises bioactive compounds from natural plants or synthesis. The majority of the plants are from the Sapindaceae family, which has 140-150 genera with 1400-2000 species. The program is based on our purification methods and biological assays including the MTT assay See International Application No. PCT/US05/31900, filed Sep. 7, 2005, U.S. Ser. No. 11/289,142, filed Nov. 28, 2005, and U.S. Ser. No. 11/131,551, filed May 17, 2005, and PCT/US2008/002086, 1188-ALA-PCT, filed Feb. 15, 2008, the contents of which are incorporated herein by reference. The details of Analysis of gene expression of ES2 cells after Y-treatment by Microarray, Data Analysis Methods and Western blot in PCT/US2008/002086, 1188-ALA-PCT, filed Feb. 15, 2008, the contents of which are incorporated herein by reference

[2] = test system: regulator of G-protein signalling 4 (RGS4); assay: Microarray gene expression in ES2 cells: regulator of G-protein; type: cell-based, human
Excerpt: as §1

[3] = test system: insulin-like growth factor binding protein 7 (IGFBP7); assay: Microarray gene expression in ES2 cells: IGFBP7; type: cell-based, human; conditions: probe set 201163_s_at
Excerpt: as §1

[4] = test system: Leishmania Major (promastigotes); assay: Cell growth of Leishmania parasites by MTT assay; type: cell-based; conditions: Leishmania major, read-out: IC50, cytotoxic to Leishmania Major (promastigotes)
Description: Method: Leishmania parasites (Leishmania major: MRHO/SU/59/P/LV39) were grown in culture medium in a T75 flask at room temperature. Promastigotes of Leishmania major (approximately 40 million per ml) were used in the experiment. 1.2 ml cell culture was transferred to a well of the 24-wells plate. Saponin Y10 (0.2 ml in medium) with different concentrations (final 6.25-200 ug/ml) was added to culture and cells were grown for 1-5 days at room temperature. At the end of drug-treatment, 150 ul of MTT (5 mg/ml in PBS) was added to each well and incubated for 4 hours. Formazan formed in cells was dissolved with DMSO and the OD at 490 nm was determined by an ELISA reader.

[5] = test system: Fibronectin; assay: Fibronectin secretion, skin SK-MEL-5 cells; type: cell-based, human; conditions: Homo sapiens, SK-MEL-5; skin SK-MeI-5 cells; 20 ug/ml
Description: (§2) Reduction of Fibronectin secretion from ES2 cells after xanifolia-Y treatment. • (Results of F1, F3, F4, F5, F7, F8, F11, F12A, F15, F16, F17) Data in PCT/US2008/002086, 1188-ALA-PCT, filed Feb. 15, 2008 are incorporated herein by reference • (F11) For lung carcinoma cells (H460), at concentration of 20 ug/ml, there are inhibitions of Fibronectin secretion ranged from 20-60%. • (F12A) For bladder carcinoma cells (HTB-9), Xanifolia-Y (10 ug/ml) inhibits 50% of Fibronectin secretion. • (F15) In liver HepG2 cells. 10 ug/ml of xanifolia-Y inhibits 42% secretion of Fibronectin. • (F16) Incubation of brain glioblastoma T98G cells with 10 ug/ml of xanifolia-Y inhibits 27% Fibronectin secretion and with 20 ug/ml Y inhibits 74% Fibronectin secretion. • (F17) For skin SK-MeI-5 cells, the inhibition is 40-57% with 20 ug/ml of Xanifolia-Y.

[6] = test system: TNC (Tenascin C); assay: Gene expression by Real-time PCR: TNC; type: cell-based; conditions: control = 100
Excerpt: (§3) Determination of gene expression by Real-time PCR method (Brilliant QPCR, Agilent Technologies): The real-time polymerase chain reactions further confirm the results obtained from micro array analysis. The Real-time PCR results (shown below) confirmed that Compound Y3 and YM increase the expression of the genes: ANGPT2, DDIT3, LIF and NFKB1Z

[7] = test system: COL1A1 (collagen type 1 alpha 1); assay: Gene expression by Real-time PCR: COL1A1; type: cell-based; conditions: control = 100
[8] = test system: RAB3B, member RAS oncogene family; assay: Microarray gene expression in ES2 cells: RAB3B; type: cell-based, human
Excerpt: as §1

[9] = test system: ITGAV (integrin alpha V); assay: Gene expression by Real-time PCR: ITGAV; type: cell-based; conditions: control = 100
Excerpt: as §3

[10] = test system: protein phosphatase 1, regulatory (inhibitor) subunit 15A (PPP1R15A); assay: Microarray gene expression in ES2 cells: PPP1R15A; type: cell-based, human
Excerpt: as §1

[11] = test system: potassium channel, subfamily U, member 1 (KCNU1); assay: Microarray gene expression in ES2 cells: potassium channel; type: cell-based, human; conditions: ID 237273_at
Excerpt: as §1

[12] = test system: thrombospondin 1 (THBS1); assay: Microarray gene expression in ES2 cells: thrombospondin; type: cell-based, human
Excerpt: as §1

[13] = test system: ES2 cells; assay: Microarray experiments: lists of modulated genes; type: cell-based, human
Excerpt: as §1

[14] = test system: Fibronectin; assay: Fibronectin secretion, lung carcinoma cells (H460); type: cell-based, human; conditions: Homo sapiens, NCI-H460; H460 cells; 20 ug/ml
Description: as §2

[15] = test system: angiopoietin-like 4; assay: Microarray gene expression in ES2 cells: angiopoietin-like 4; type: cell-based, human; conditions: micro array
Excerpt: as §1
Angiogenesis is a process involving the growth of new blood vessels. It is a normal process in growth and development. However, this is also a fundamental step in the transition of tumors from a dormant state to a malignant state. The angiopoietins are protein growth factors that modulate angiogenesis. […]

Structure (SMILES): C/C=C(/C)C(=O)O[C@H]1[C@H](OC(=O)/C(C)=C\C)[C@@]2(CO)C(CC1(C)C)C1=CCC3[C@@]4(C)CC[C@H](O[C@@H]5OC(C(=O)O)[C@@H](O)[C@@H](O[C@@H]6O[C@@H](CO)[C@@H](O)C6O)C5O[C@@H]5OC(CO)[C@H](O)[C@@H](O)C5O)C(C)(C)C4CC[C@@]3(C)[C@]1(C)[C@@H](O)[C@H]2O (stereo partly drawn) [Y, 3-O-[β-D-galactopyranosyl(1→2)]-α-L-arabinofuranosy (1→3)-β-D-glucuronopyranosyl-21,22-O-diangeloyl-3β, 15α, 16α, 21β, 22α, 28-hexahydroxyolean-12-ene]
- DUSP10 expression (given as Y/D, YM/D) ([1]; 215501_s_at): 3.2
- DUSP10 expression (given as Y/D, YM/D) ([1]; 221563_at): 3.8
- RGS4 expression, treated/D (DMSO control) ([2]; probe set 204337_at): −3.4
- RGS4 expression, treated/D (DMSO control) ([2]; probe set 204338_s_at): −2.5
- RGS4 expression, treated/D (DMSO control) ([2]; probe set 204339_s_at): −3.5
- IGFBP7 expression, treated/D (DMSO control) [3]: −1.4
- IC50 [4]: 15 µg/mL (≈ 13.1 µM)
- inhibition at 20 µg/mL [5]: 40 to 57%
- TNC expression, % of control [6]: 41.1 % of control
- COL1A1 expression, % of control [7]: 49.9 % of control
- RAB3B expression, treated/D (DMSO control) ([8]; ID 205924_at): −1.7
- RAB3B expression, treated/D (DMSO control) ([8]; ID 205925_s_at): −1.2
- RAB3B expression, treated/D (DMSO control) ([8]; ID 227123_at): −1.6
- RAB3B expression, treated/D (DMSO control) ([8]; ID 242629_at): −3.5
- ITGAV expression, % of control [9]: 63.8 % of control
- PPP1R15A expression (given as Y/D, YM/D) ([10]; 37028_at): 2.4
- PPP1R15A expression (given as Y/D, YM/D) ([10]; 202014_at): 2.6
- KCNU1 expression, treated/D (DMSO control) [11]: −4.0
- THBS1 expression, treated/D (DMSO control) ([12]; probe set 201108_s_at): −1.7
- THBS1 expression, treated/D (DMSO control) ([12]; probe set 201109_s_at): −2.0
- THBS1 expression, treated/D (DMSO control) ([12]; probe set 201110_s_at): −1.8
- genes expression of the adhesion-related genes listed in b182 (FN1, ITGAV, LAMA4 ...) [13]: inhibited
- gene expression of the genes listed in b176 ([13]; Microarray): modulates
- gene expression of the genes listed in b178 ([13]; Microarray): inhibiting
- gene expression of the genes listed in b180 ([13]; Microarray): stimulates
- inhibition at 20 µg/mL [14]: 20 to 60%
- gene expression of angiopoietin-like 4 [15]: inhibit
